Source: publication PMC9519446, “Discovery of an Orally Active Benzoxaborole Prodrug Effective in the Treatment of Chagas Disease in Non-human Primates” (Nature microbiology, 2022)

Tested on: recombinant T. cruzi proteins
Assay: Luminex-based multiplex serological assay (IgG to recombinant T. cruzi proteins)
Type: in vivo, rhesus macaques (Macaca mulatta)
Conditions: for IgG response to G10 (36) / IgG response to Kn107 (20) / IgG response to Tc1 (3) / IgG response to Tc2 (6) / IgG response to Tc3 (11) / IgG response to Tc4 (16) / IgG response to Tc5 (22) / IgG response to Tc7 (27) / IgG response to Tc8 (31) / IgG response to Tc11 (35) / IgG response to Tc17 (51) / IgG response to Tc lysate (50): treated animal T19
Protocol: Luminex-based multiplex serological assays were performed as previously described, [17]. For a number of smaller proteins, fusions of up to 2 individual genes are employed for some target proteins in order to expand the array of antibodies being detected while controlling costs and complexity of the assay. (TritrypDb.org identifiers: Tc1= fusion of TcBrA4_0116860 and TcYC6_0028190; Tc2= fusion of TcBrA4_0088420 and TcBrA4_0101960; Tc3 = fusion of TcBrA4_0104680 and TcBrA4_0101980; Tc4= fusion of TcBrA4_0028480 and TcBrA4_0088260; Tc5 = fusion of TcYC6_0100010 and TcBrA4_0074300; Tc7 = fusion of TcYC6_0083710 and TcBrA4_0130080; Tc8 = TcYC6_0037170; Tc11 = TcYC6_0124160; Tc17 = fusion of TcBrA4_0028230 and TcBrA4_0029760; Kn107 = TcCLB.508355.250; G10 = TcCLB.504199.20). Macaque antibody binding to individual beads in the Multiplex assays was detected with donkey anti-human IgG (H+L) conjugated to phycoerythrin (Jackson ImmunoResearch) in a 1:200 dilution.

SMILES: Cc1c(C(=O)N[C@H](C(=O)OCC2CCOCC2)C(C)C)ccc2c1B(O)OC2 [AN15368]
- IgG levels to recombinant T. cruzi proteins over time (treated NHP, up to 42 months after end of treatment): Declining IgG levels
- IgG response to G10 (36) (2017-09-13): 45.3
- IgG response to Kn107 (20) (2017-09-13): 5.3
- IgG response to Tc1 (3) (2017-09-13): 4561.8
- IgG response to Tc2 (6) (2017-09-13): 786.0
- IgG response to Tc3 (11) (2017-09-13): -22.8
- IgG response to Tc4 (16) (2017-09-13): 35.3
- IgG response to Tc5 (22) (2017-09-13): -9.5
- IgG response to Tc7 (27) (2017-09-13): 2389.8
- IgG response to Tc8 (31) (2017-09-13): 14652.0
- IgG response to Tc11 (35) (2017-09-13): 292.3
- IgG response to Tc17 (51) (2017-09-13): 1360.0
- IgG response to Tc lysate (50) (2017-09-13): 2591.5
- IgG response to G10 (36) (2017-11-17): 2.8
- IgG response to Kn107 (20) (2017-11-17): 7.0
- IgG response to Tc1 (3) (2017-11-17): 2671.5
- IgG response to Tc2 (6) (2017-11-17): 364.3
- IgG response to Tc3 (11) (2017-11-17): 25.0
- IgG response to Tc4 (16) (2017-11-17): 39.3
- IgG response to Tc5 (22) (2017-11-17): -11.5
- IgG response to Tc7 (27) (2017-11-17): 1520.3
- IgG response to Tc8 (31) (2017-11-17): 12143.5
- IgG response to Tc11 (35) (2017-11-17): 154.0
- IgG response to Tc17 (51) (2017-11-17): 1317.5
- IgG response to Tc lysate (50) (2017-11-17): 1854.3
- IgG response to G10 (36) (2017-12-06): 38.0
- IgG response to Kn107 (20) (2017-12-06): 21.8
- IgG response to Tc1 (3) (2017-12-06): 2769.0
- IgG response to Tc2 (6) (2017-12-06): 433.8
- IgG response to Tc3 (11) (2017-12-06): -25.8
- IgG response to Tc4 (16) (2017-12-06): 11.8
- IgG response to Tc5 (22) (2017-12-06): 33.5
- IgG response to Tc7 (27) (2017-12-06): 1546.5
- IgG response to Tc8 (31) (2017-12-06): 12008.3
- IgG response to Tc11 (35) (2017-12-06): 211.8
- IgG response to Tc17 (51) (2017-12-06): 1420.3
- IgG response to Tc lysate (50) (2017-12-06): 1538.8
- IgG response to G10 (36) (2017-12-20): -55.8
- IgG response to Kn107 (20) (2017-12-20): 36.8
- IgG response to Tc1 (3) (2017-12-20): 2355.8
- IgG response to Tc2 (6) (2017-12-20): 410.8
- IgG response to Tc3 (11) (2017-12-20): 34.8
- IgG response to Tc4 (16) (2017-12-20): 99.0
- IgG response to Tc5 (22) (2017-12-20): 41.0
- IgG response to Tc7 (27) (2017-12-20): 1365.3
- IgG response to Tc8 (31) (2017-12-20): 9274.0
- IgG response to Tc11 (35) (2017-12-20): 116.0
- IgG response to Tc17 (51) (2017-12-20): 1322.5
- IgG response to Tc lysate (50) (2017-12-20): 1584.0
- IgG response to G10 (36) (2018-01-09): 36.5
- IgG response to Kn107 (20) (2018-01-09): 76.0
- IgG response to Tc1 (3) (2018-01-09): 3757.5
- IgG response to Tc2 (6) (2018-01-09): 565.5
- IgG response to Tc3 (11) (2018-01-09): 64.8
- IgG response to Tc4 (16) (2018-01-09): 81.0
- IgG response to Tc5 (22) (2018-01-09): -22.0
- IgG response to Tc7 (27) (2018-01-09): 1442.3
- IgG response to Tc8 (31) (2018-01-09): 13021.3
- IgG response to Tc11 (35) (2018-01-09): 357.0
- IgG response to Tc17 (51) (2018-01-09): 2026.0
- IgG response to Tc lysate (50) (2018-01-09): 2194.3
- IgG response to G10 (36) (2018-01-23): 14.8
- IgG response to Kn107 (20) (2018-01-23): 214.8
- IgG response to Tc1 (3) (2018-01-23): 4009.3
- IgG response to Tc2 (6) (2018-01-23): 590.8
- IgG response to Tc3 (11) (2018-01-23): -15.0
- IgG response to Tc4 (16) (2018-01-23): 80.0
- IgG response to Tc5 (22) (2018-01-23): 19.8
- IgG response to Tc7 (27) (2018-01-23): 2161.8
- IgG response to Tc8 (31) (2018-01-23): 13766.8
- IgG response to Tc11 (35) (2018-01-23): 289.0
- IgG response to Tc17 (51) (2018-01-23): 2186.0
